Tests used:
[1] = system: collagen induced arthritis; conditions: collagen-induced arthritis model; cited from earlier work
CCR5 [2] = target: T1, CCR5 (Homo sapiens, UniProt P51681); assay: Human CCR5 receptor-ligand binding (RANTES) assay; parameters: expressed in transfected cells; conditions: 125I RANTES 0.1 nM, CHO-Gα16-hCCR5 cells
Procedure: The construct was transfected into CHO-Gα16 cells by using Fugene Reagent (Roche).
Adherent cells in […] tissue culture flask (˜90% confluent) were harvested using 1 mM EDTA in PBS (phosphate-buffered saline) without Ca^2+ and Mg^2+. Cells were washed twice with PBS containing no Ca^2+ and Mg^2+.
Eighty μl CHO-Gα16-hCCR5 (1×10^6/ml) cells were added to 96 well plates.
The compound dilutions were made in PBS, 1% BSA. Total reaction volume was 100 μl per well. The test compounds were added to the cells prior to the addition of radioligand.
After incubation, the cells were harvested onto GF/C filter plates using Packard cell harvester. Filters were pretreated with 0.3% PEI/0.2% BSA for 30 min. The filter plate was washed rapidly 5 times with 25 mM HEPES, 500 mM NaCl, 1 mM CaCl2 and 5 mM MgCl2 adjusted to pH 7.1. Plates were dried in oven (70° C.) for 20 min, added with 40 μl scintillation fluid and sealed with Packard TopSeal-A. Packard Top Count was used to measure of the radioactivity for 1 min per well.
Total binding was determined with control wells added with radioisotope and buffer and the non-specific binding was determined using an excess cold RANTES to some of the control wells. Specific binding was determined by subtracting the non-specific form total binding. […] IC50 values were determined using varying concentrations of the test ligand in triplicates and the data was analyzed using GraphPad Prism (GraphPad, San Diego, Calif.).

CCR5 [3] = target: T1, CCR5; assay: CCR5-mediated CCF (cell-cell fusion) assay, Hela-R5 / CEM-NKr-CCR5-Luc luciferase readout; type: cell-based; parameters: host or cells: CEM-NKr-CCR5-Luc cells, co-cultured with Hela-R5 cells expressing gp160 and Tat; conditions: Hela-R5 and CEM-NKr-CCR5-Luc co-culture 24 hrs
Procedure: The capacity for novel compounds of the present invention to bind to the CCR5 receptor and thereby antagonize CCR5 function can be evaluated with assay systems known in the art.
Hela-R5 cells (express gp160 from R5-tropic virus and HIV-1 Tat) were plated in 384 well white culture plates (BD Bioscience, Palo Alto, Calif.) at 7.5×10^3 cells per well in phenol red-free Dulbecco's Modified Eagle Medium (DMEM) supplemented with 10% FBS, 1× Pen-Strep, 300 μg/ml G418, 100 μg/ml hygromycin, and 1 μg/ml Doxycycline (Dox) (BD Bioscience, Palo Alto, Calif.), using Multimek (Beckman, Fullerton, Calif.) and incubated at 37° C. overnight to induce the expression of gp160. Ten μl diluted compounds in medium containing 5% DMSO were added to the cells, followed by the addition of CEM-NKr-CCR5-Luc (obtained from NIH AIDS Research & Reference Reagents Program) that expresses CD4 and CCR5 and carries a HIV-2 long terminal repeat (LTR)-driven luciferase reporter gene at 1.5×10^4 cells/15 μL/well and incubated for 24 hrs. At the end of co-culture, 15 μl of Steady-Glo luciferase substrate was added into each well, and the cultures were sealed and gently shaken for 45 min. The luciferase activity were measured for 10 sec per well as luminescence by using 16-channel TopCount NXT (PerkinElmer, Shelton, Conn.) with 10 min dark adaptation and the readout is count per second (CPS). For the drug interaction experiments, small molecule compounds or antibodies were serially diluted in serum-free and phenol red-free RPMI containing 5% dimethyl sulfoxide (DMSO) (CalBiochem, La Jolla, Calif.) and 1× Pen-Strep. Five μl each of the two diluted compound or mAb to be tested for drug-drug interactions were added to the Hela-R5 cells right before the addition of target cells.

CCR5 [4] = target: T1, CCR5; assay: Chemotaxis assay with L1.2hCCR5 cells; type: cell-based; parameters: expressed in transfected cells; conditions: Inhibition of RANTES stimulated chemotaxis
Description: A chemotaxis assay is a functional assay which measures the ability of a non-adherent cell line expressing human CCR5 receptor to migrate across a membrane in response to either test compounds or natural attractant ligand(s) (i.e., RANTES, MIP-1β). Generally, chemotaxis assays monitor the directional movement or migration of a suitable cell (such as a leukocyte (e.g., lymphocyte, eosinophil, basophil)) into or through a barrier (e.g., endothelium, a permeable filter membrane), toward, from a first surface of the barrier toward an opposite second surface containing attractant ligands. Membranes or filters provide convenient barriers to monitor the directional movement or migration of a suitable cell into or through a filter, toward increased levels of an attractant. […]
After the incubation period, the cells are scraped off the filter and the plates are spun in a table top centrifuge at 2,000 rpm for 10 min. The filter is then removed and the density of the cells that have migrated to the bottom wells is detected using CyQUANT^R cell proliferation assay kit (Invitrogen) and the Spectra MAX GeminiXS plate reader (Molecular Devices) according to the manufacturers' instructions. Using the fluorescence measurements the percent migration is determined by % migration=[1−(max−obs)/(max−min)]×100. […] This is calculated with Excel Fit.

T1 sequence (P51681 whole entry): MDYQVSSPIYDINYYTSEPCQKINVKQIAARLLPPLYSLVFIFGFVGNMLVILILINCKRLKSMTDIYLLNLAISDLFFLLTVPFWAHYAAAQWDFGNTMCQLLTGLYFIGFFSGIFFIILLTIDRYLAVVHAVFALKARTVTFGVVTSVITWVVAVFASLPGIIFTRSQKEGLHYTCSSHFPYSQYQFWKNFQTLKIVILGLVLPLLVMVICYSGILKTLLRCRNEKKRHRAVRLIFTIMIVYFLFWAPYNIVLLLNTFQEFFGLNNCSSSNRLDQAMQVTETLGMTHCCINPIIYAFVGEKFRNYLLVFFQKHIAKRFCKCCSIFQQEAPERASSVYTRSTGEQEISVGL

| IC50 (CCR5 [2]) | IC50 (CCR5 [3]) | IC50 (CCR5 [4]) | Compound | incidence and severity of arthritis [1] | infiltration of inflammatory CCR5+ T-cells into the joint [1] |
| --- | --- | --- | --- | --- | --- |
| 68.8 nM | 360 nM | – | Cc1cc(C#N)nc(C)c1C(=O)N1CC2CN(CCC3(c4ccccc4)CCN(C(=O)C(C)(C)C)C3)CC2C1 (stereo not shown) [III-8] | – | – |
| 18.8 nM | 9.5 nM | – | Cc1ncnc(C)c1C(=O)N1CC2CN(CCC3(c4ccccc4)CN(C(=O)C4CCC(F)(F)CC4)C3)CC2C1 (stereo not shown) [II-39] | – | – |
| 105 nM | – | – | Cc1ncnc(C)c1C(=O)N1CC2CN(CCC3(c4ccccc4)CN(S(=O)(=O)C(C)C)C3)CC2C1 (stereo not shown) [II-19] | – | – |
| 11.3 nM | 2.6 nM | – | Cc1cc(=O)oc(C)c1C(=O)N1CC2CN(CCC3(c4ccccc4)CN(C(=O)C4CCC(F)(F)CC4)C3)CC2C1 (stereo not shown) [II-33] | – | – |
| 51.5 nM | 486 nM | – | Cc1ncnc(C)c1C(=O)N1CC2CN(CCC3(c4ccccc4)CN(C(=O)C4(C(F)(F)F)CC4)C3)CC2C1 (stereo not shown) [II-15] | – | – |
| 38.6 nM | 4.2 nM | – | Cc1ncnc(C)c1C(=O)N1CC2CN(CCC(c3cccc(F)c3)C3CN(S(=O)(=O)c4cccc(F)c4)C3)CC2C1 (stereo not shown) [IV-14] | – | – |
| 27.1 nM | 458 nM | – | Cc1ncnc(C)c1C(=O)N1CC2CN(CCC3(c4ccccc4)CN(S(=O)(=O)C4CCCC4)C3)CC2C1 (stereo not shown) [II-22, {5-[2-(1-Cyclopentanesulfonyl-3-phenyl-azetidin-3-yl)-ethyl]-hexahydro-pyrrolo[3,4-c]pyrrol-2-yl}-(4,6-dimethyl-pyrimidin-5-yl)-methanone] | – | – |
| 27.7 nM | 136 nM | – | Cc1ncnc(C)c1C(=O)N1CC2CN(CCC3(c4ccccc4)CN(C(=O)CC4CCCC4)C3)CC2C1 (stereo not shown) [II-6] | – | – |
| 244 nM | 458 nM | – | Cc1ncnc(C)c1C(=O)N1CC2CN(CCC(c3ccccc3)C3CN(C(=O)C(C)C)C3)CC2C1 (stereo not shown) [IV-10] | – | – |

The remaining lines, values behind:

| Compound | IC50 (CCR5 [2]) | IC50 (CCR5 [3]) | IC50 (CCR5 [4]) | incidence and severity of arthritis [1] | infiltration of inflammatory CCR5+ T-cells into the joint [1] |
| --- | --- | --- | --- | --- | --- |
| Cc1ccc(-c2ccc3c(c2)C=C(C(=O)Nc2ccc(C[N+](C)(C)C4CCOCC4)cc2)CCC3)cc1.[Cl-] [TAK-779] | – | – | – | reduce both the incidence and severity of arthritis | inhibited |
| Cc1ncnc(C)c1C(=O)N1CC2CN(CCC3(c4ccccc4)CCN(C(=O)c4ccc(S(N)(=O)=O)cc4)CC3)CC2C1 (stereo not shown) [I-9] | 500 nM | 2500 nM | – | – | – |
| 1-(4-{3-[5-(4,6-Dimethyl-pyrimidine-5-carbonyl)-hexahydro-pyrrolo[3,4-c]pyrrol-2-yl]-1-phenyl-propyl}-piperidin-1-yl)-2-methyl-propan-1-one [V-15] | 8.2 nM | 202 nM | – | – | – |
| Cc1ncnc(C)c1C(=O)N1CC2CN(CCC3(c4ccccc4)CCN(C(=O)OC(C)(C)C)CC3)CC2C1 (stereo not shown) [I-1, tert-Butyl 4-{2-[5-(4,6-dimethyl-pyrimidine-5-carbonyl)-hexahydro-pyrrolo[3,4-c]pyrrol-2-yl]-ethyl}-4-phenyl-piperidine-1-carboxylate] | 835 nM | 835 nM | – | – | – |
| Cc1ncnc(C)c1C(=O)N1CC2CN(CCC3(c4ccccc4)CCN(C(=O)c4cccc(S(=O)(=O)N(C)C)c4)CC3)CC2C1 (stereo not shown) [I-14] | 48.4 nM | 1200 nM | – | – | – |
| Cc1ncnc(C)c1C(=O)N1CC2CN(CCC(c3ccccc3)C3CCN(S(C)(=O)=O)CC3)CC2C1 (stereo not shown) [V-12] | – | – | 765 nM | – | – |
| COC(=O)N1CCC(C(CCN2CC3CN(C(=O)c4c(C)ncnc4C)CC3C2)c2ccccc2)CC1 (stereo not shown) [V-7, 4-{3-[5-(4,6-Dimethyl-pyrimidine-5-carbonyl)-hexahydro-pyrrolo[3,4-c]pyrrol-2-yl]-1-phenyl-propyl}-piperidine-1-carboxylic acid methyl ester] | 102 nM | 744 nM | – | – | – |
| Cc1ncnc(C)c1C(=O)N1CC2CN(CCC3(c4cccc(F)c4)CCN(C(=O)c4ccccc4)CC3)CC2C1 (stereo not shown) [I-3] | 77.6 nM | 306 nM | – | – | – |
| Cc1ncnc(C)c1C(=O)N1CC2CN(CCC3(c4cccc(F)c4)CCN(C(=O)c4cccc(S(=O)(=O)N(C)C)c4)CC3)CC2C1 (stereo not shown) [I-19] | 50.9 nM | 393 nM | – | – | – |

Reference: patent US7625905B2, “Octahydro-pyrrolo[3,4-c]pyrrole CCR5 receptor antagonists” (Roche Palo Alto LLC, priority 2006, dated 2009)
